Measurements reported in PubChem BioAssay AID1259407 (Chemical Carcinogenesis Research Information System (CCRIS), 2018).
The source made the active and inactive calls. No rule for the calls is given here.

Test system: CCRIS mutagenicity, Ames/micronucleus/aberration tests
Assay: CCRIS mutagenicity studies

CCC1CO1 (stereo not drawn)
mutagenic call (End Point: IN VITRO CHROMOSOMAL ABERRATIONS, Test System: CHO CELLS, Metabolic Activation: NONE): inactive; negative; authors report a positive response at the highest dose but few cells c
mutagenic call (End Point: IN VITRO CHROMOSOMAL ABERRATIONS, Test System: HUMAN PERIPHERAL LYMPHOCYTES, Metabolic Activation: NONE, Method: FISH (DUAL COLOR FOR CHROMOSOMES 7, 8, 12 AND X)): active; positive (hyperdiploidy of chromosomes 12 and x)
mutagenic call (End Point: IN VITRO MICRONUCLEUS, Test System: HUMAN PERIPHERAL LYMPHOCYTES, Metabolic Activation: NONE): active; positive
mutagenic call (Test System: AMES SALMONELLA TYPHIMURIUM, Strain/Indicator: TA98, Metabolic Activation: HAMSTER, LIVER, S-9, AROCLOR 1254, Method: PREINCUBATION): inactive; negative
mutagenic call (Test System: AMES SALMONELLA TYPHIMURIUM, Strain/Indicator: TA98, Metabolic Activation: NONE, Method: FLUCTUATION (MICROTITER)): inactive; negative
mutagenic call (Test System: AMES SALMONELLA TYPHIMURIUM, Strain/Indicator: TA98, Metabolic Activation: NONE, Method: PREINCUBATION): inactive; negative
mutagenic call (Test System: AMES SALMONELLA TYPHIMURIUM, Strain/Indicator: TA98, Metabolic Activation: NONE, Method: STANDARD PLATE): inactive; negative
mutagenic call (Test System: AMES SALMONELLA TYPHIMURIUM, Strain/Indicator: TA98, Metabolic Activation: RAT LIVER S-9, AROCLOR 1254, Method: FLUCTUATION (MICROTITER)): inactive; negative
mutagenic call (Test System: AMES SALMONELLA TYPHIMURIUM, Strain/Indicator: TA98, Metabolic Activation: RAT, LIVER, S-9, AROCLOR 1254, Method: PREINCUBATION): inactive; negative
mutagenic call (Test System: AMES SALMONELLA TYPHIMURIUM, Strain/Indicator: TA100, Metabolic Activation: HAMSTER, LIVER, S-9, AROCLOR 1254, Method: PREINCUBATION): active; positive
mutagenic call (Test System: AMES SALMONELLA TYPHIMURIUM, Strain/Indicator: TA100, Metabolic Activation: NONE, Method: PREINCUBATION): active; positive
mutagenic call (Test System: AMES SALMONELLA TYPHIMURIUM, Strain/Indicator: TA100, Metabolic Activation: RAT, LIVER, S-9, AROCLOR 1254, Method: PREINCUBATION): active; positive
mutagenic call (Test System: AMES SALMONELLA TYPHIMURIUM, Strain/Indicator: TA1535, Metabolic Activation: HAMSTER, LIVER, S-9, AROCLOR 1254, Method: PREINCUBATION): active; positive
mutagenic call (Test System: AMES SALMONELLA TYPHIMURIUM, Strain/Indicator: TA1535, Metabolic Activation: NONE, Method: PREINCUBATION): active; positive
mutagenic call (Test System: AMES SALMONELLA TYPHIMURIUM, Strain/Indicator: TA1535, Metabolic Activation: NONE, Method: STANDARD PLATE): active; positive
mutagenic call (Test System: AMES SALMONELLA TYPHIMURIUM, Strain/Indicator: TA1535, Metabolic Activation: RAT, LIVER, S-9, AROCLOR 1254, Method: PREINCUBATION): active; positive
mutagenic call (Test System: AMES SALMONELLA TYPHIMURIUM, Strain/Indicator: TA1537, Metabolic Activation: HAMSTER, LIVER, S-9, AROCLOR 1254, Method: PREINCUBATION): inactive; negative
mutagenic call (Test System: AMES SALMONELLA TYPHIMURIUM, Strain/Indicator: TA1537, Metabolic Activation: NONE, Method: FLUCTUATION (MICROTITER)): inactive; negative
mutagenic call (Test System: AMES SALMONELLA TYPHIMURIUM, Strain/Indicator: TA1537, Metabolic Activation: NONE, Method: PREINCUBATION): inactive; negative
mutagenic call (Test System: AMES SALMONELLA TYPHIMURIUM, Strain/Indicator: TA1537, Metabolic Activation: RAT LIVER S-9, AROCLOR 1254, Method: FLUCTUATION (MICROTITER)): inactive; negative
mutagenic call (Test System: AMES SALMONELLA TYPHIMURIUM, Strain/Indicator: TA1537, Metabolic Activation: RAT, LIVER, S-9, AROCLOR 1254, Method: PREINCUBATION): inactive; negative
mutagenic call (Test System: AMES SALMONELLA TYPHIMURIUM, Strain/Indicator: TA7001, Metabolic Activation: NONE, Method: FLUCTUATION (MICROTITER)): inactive; negative
mutagenic call (Test System: AMES SALMONELLA TYPHIMURIUM, Strain/Indicator: TA7001, Metabolic Activation: RAT LIVER S-9, AROCLOR 1254, Method: FLUCTUATION (MICROTITER)): inactive; negative
mutagenic call (Test System: AMES SALMONELLA TYPHIMURIUM, Strain/Indicator: TA7002, Metabolic Activation: NONE, Method: FLUCTUATION (MICROTITER)): inactive; negative
mutagenic call (Test System: AMES SALMONELLA TYPHIMURIUM, Strain/Indicator: TA7002, Metabolic Activation: RAT LIVER S-9, AROCLOR 1254, Method: FLUCTUATION (MICROTITER)): inactive; negative
mutagenic call (Test System: AMES SALMONELLA TYPHIMURIUM, Strain/Indicator: TA7003, Metabolic Activation: NONE, Method: FLUCTUATION (MICROTITER)): inactive; negative
mutagenic call (Test System: AMES SALMONELLA TYPHIMURIUM, Strain/Indicator: TA7003, Metabolic Activation: RAT LIVER S-9, AROCLOR 1254, Method: FLUCTUATION (MICROTITER)): inactive; negative
mutagenic call (Test System: AMES SALMONELLA TYPHIMURIUM, Strain/Indicator: TA7004, Metabolic Activation: NONE, Method: FLUCTUATION (MICROTITER)): active; positive
mutagenic call (Test System: AMES SALMONELLA TYPHIMURIUM, Strain/Indicator: TA7004, Metabolic Activation: RAT LIVER S-9, AROCLOR 1254, Method: FLUCTUATION (MICROTITER)): inactive; negative
mutagenic call (Test System: AMES SALMONELLA TYPHIMURIUM, Strain/Indicator: TA7005, Metabolic Activation: NONE, Method: FLUCTUATION (MICROTITER)): inactive; negative
mutagenic call (Test System: AMES SALMONELLA TYPHIMURIUM, Strain/Indicator: TA7005, Metabolic Activation: RAT LIVER S-9, AROCLOR 1254, Method: FLUCTUATION (MICROTITER)): inactive; negative
mutagenic call (Test System: AMES SALMONELLA TYPHIMURIUM, Strain/Indicator: TA7006, Metabolic Activation: NONE, Method: FLUCTUATION (MICROTITER)): inactive; negative
mutagenic call (Test System: AMES SALMONELLA TYPHIMURIUM, Strain/Indicator: TA7006, Metabolic Activation: RAT LIVER S-9, AROCLOR 1254, Method: FLUCTUATION (MICROTITER)): inactive; negative
mutagenic call (Test System: E. COLI, Strain/Indicator: WP2 UVRA, Metabolic Activation: HAMSTER, LIVER, S-9, AROCLOR 1254, Method: PREINCUBATION): inactive; negative
mutagenic call (Test System: E. COLI, Strain/Indicator: WP2 UVRA, Metabolic Activation: HAMSTER, LIVER, S-9, AROCLOR 1254, Method: STANDARD PLATE): inactive; negative
mutagenic call (Test System: E. COLI, Strain/Indicator: WP2 UVRA, Metabolic Activation: HAMSTER, LIVER, S-9, Method: STANDARD PLATE): inactive; negative
mutagenic call (Test System: E. COLI, Strain/Indicator: WP2 UVRA, Metabolic Activation: MOUSE, LIVER, S-9, AROCLOR 1254, Method: PREINCUBATION): inactive; negative
mutagenic call (Test System: E. COLI, Strain/Indicator: WP2 UVRA, Metabolic Activation: MOUSE, LIVER, S-9, AROCLOR 1254, Method: STANDARD PLATE): inactive; negative
mutagenic call (Test System: E. COLI, Strain/Indicator: WP2 UVRA, Metabolic Activation: MOUSE, LIVER, S-9, Method: PREINCUBATION): inactive; negative
mutagenic call (Test System: E. COLI, Strain/Indicator: WP2 UVRA, Metabolic Activation: MOUSE, LIVER, S-9, Method: STANDARD PLATE): inactive; negative
mutagenic call (Test System: E. COLI, Strain/Indicator: WP2 UVRA, Metabolic Activation: NONE, Method: PREINCUBATION): inactive; negative
mutagenic call (Test System: E. COLI, Strain/Indicator: WP2 UVRA, Metabolic Activation: NONE, Method: STANDARD PLATE): inactive; negative
mutagenic call (Test System: E. COLI, Strain/Indicator: WP2 UVRA, Metabolic Activation: RAT, LIVER, S-9, AROCLOR 1254, Method: PREINCUBATION): inactive; negative
mutagenic call (Test System: E. COLI, Strain/Indicator: WP2 UVRA, Metabolic Activation: RAT, LIVER, S-9, AROCLOR 1254, Method: STANDARD PLATE): inactive; negative
mutagenic call (Test System: E. COLI, Strain/Indicator: WP2 UVRA, Metabolic Activation: RAT, LIVER, S-9, Method: PREINCUBATION): inactive; negative
mutagenic call (Test System: E. COLI, Strain/Indicator: WP2 UVRA, Metabolic Activation: RAT, LIVER, S-9, Method: STANDARD PLATE): inactive; negative

C/C=C(\C)CCl
mutagenic call (Test System: AMES SALMONELLA TYPHIMURIUM, Strain/Indicator: TA100, Metabolic Activation: NONE, Method: LIQUID SUSPENSION): active; positive
mutagenic call (Test System: AMES SALMONELLA TYPHIMURIUM, Strain/Indicator: TA100, Metabolic Activation: RAT, LIVER, S-9, Method: LIQUID SUSPENSION): active; positive
